Assay results reported in US20090239918A1, “SELECTIVE SUBTYPE ALPHA 2 ADRENERGIC AGENTS AND METHODS FOR USE THEREOF” (ALLERGAN, INC., priority 2008, published 2009).

How the values were obtained:
Alpha 2B receptor = molecular target: T1, Alpha 2B receptor (Homo sapiens, UniProt P18089); assay: RSAT (Receptor Selection and Amplification Technology) assay, alpha 2B; type: cell-based; details: for EC50: NIH-3T3 cells cotransfected with receptor and Gq/i5, na = not active; for RSAT (rel eff) Alpha 2B, intrinsic activity: ratio of maximal effect of the drug to maximal effect of standard full agonist brimonidine
T1 construct: expressed in transfected cells; host or cells: NIH-3T3
T1 sequence (P18089 1-450): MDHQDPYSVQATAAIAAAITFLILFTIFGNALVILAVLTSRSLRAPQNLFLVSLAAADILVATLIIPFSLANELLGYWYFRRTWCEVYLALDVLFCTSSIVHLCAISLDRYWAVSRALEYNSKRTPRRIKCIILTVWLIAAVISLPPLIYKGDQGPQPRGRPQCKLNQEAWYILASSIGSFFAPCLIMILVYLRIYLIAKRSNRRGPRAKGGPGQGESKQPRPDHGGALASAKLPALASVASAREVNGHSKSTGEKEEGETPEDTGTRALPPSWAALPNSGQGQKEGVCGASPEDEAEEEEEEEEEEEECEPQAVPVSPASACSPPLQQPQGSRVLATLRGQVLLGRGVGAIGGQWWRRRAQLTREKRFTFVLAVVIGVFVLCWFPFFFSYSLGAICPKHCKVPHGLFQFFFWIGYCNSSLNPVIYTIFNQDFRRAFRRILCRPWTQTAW
Description: (§1) 76, pp. 308-311 (incorporated herein by reference) and is also described below.
(§2) The RSAT assay measures a receptor-mediated loss of contact inhibition that results in selective proliferation of receptor-containing cells in a mixed population of confluent cells. The increase in cell number is assessed with an appropriate transfected marker gene such as β-galactosidase, the activity of which can be easily measured in a 96-well format. Receptors that activate the G protein, Gq, elicit this response. Alpha 2 receptors, which normally couple to Gi, activate the RSAT response when coexpressed with a hybrid Gq protein that has a Gi receptor recognition domain, called Gq/i5.
(§3) NIH-3T3 cells are plated at a density of 2×10^6 cells in 15 cm dishes and maintained in Dulbecco's modified Eagle's medium supplemented with 10% calf serum. One day later, cells are cotransfected by calcium phosphate precipitation with mammalian expression plasmids encoding p-SV-β-galactosidase (5-10 μg), receptor (1-2 μg) and G protein (1-2 μg). 40 μg salmon sperm DNA may also be included in the transfection mixture. Fresh media is added on the following day and 1-2 days later, cells are harvested and frozen in 50 assay aliquots. Cells are thawed and 100 μl added to 100 μL aliquots of various concentrations of drugs in triplicate in 96-well dishes. Incubations continue 72-96 hr at 37° C. After washing with phosphate-buffered saline, β-galactosidase enzyme activity is determined by adding 200 μL of the chromogenic substrate (consisting of 3.5 mM o-nitrophenyl-β-D-galactopyranoside and 0.5% nonidet P-40 in phosphate buffered saline), incubating overnight at 30° C. and measuring optical density at 420 nm. The absorbance is a measure of enzyme activity, which depends on cell number and reflects a receptor-mediated cell proliferation. The efficacy or intrinsic activity is calculated as a ratio of the maximal effect of the drug to the maximal effect of a standard full agonist for each receptor subtype. Brimonidine, the chemical structure of which is shown below, is used as the standard agonist for the alpha 2B and alpha 2C receptors.

Alpha 2C receptor = molecular target: T2, Alpha 2C receptor (Homo sapiens, UniProt P18825); assay: RSAT (Receptor Selection and Amplification Technology) assay, alpha 2C; type: cell-based; details: for EC50: NIH-3T3 cells cotransfected with receptor and Gq/i5, na = not active; for RSAT (rel eff) Alpha 2C, intrinsic activity: ratio of maximal effect of the drug to maximal effect of standard full agonist brimonidine
T2 construct: expressed in transfected cells; host or cells: NIH-3T3
T2 sequence (P18825 1-462): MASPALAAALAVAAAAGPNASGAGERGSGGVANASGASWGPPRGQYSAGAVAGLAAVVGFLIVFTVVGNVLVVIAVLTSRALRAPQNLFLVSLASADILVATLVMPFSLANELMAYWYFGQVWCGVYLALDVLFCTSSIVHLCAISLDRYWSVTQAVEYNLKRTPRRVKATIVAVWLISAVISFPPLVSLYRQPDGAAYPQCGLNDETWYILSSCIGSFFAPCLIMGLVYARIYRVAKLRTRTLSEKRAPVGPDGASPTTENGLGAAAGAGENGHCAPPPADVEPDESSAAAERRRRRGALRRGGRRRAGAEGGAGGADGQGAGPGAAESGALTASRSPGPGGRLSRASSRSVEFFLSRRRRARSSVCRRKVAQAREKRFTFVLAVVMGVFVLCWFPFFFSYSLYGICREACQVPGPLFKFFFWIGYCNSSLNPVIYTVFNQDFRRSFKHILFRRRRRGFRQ
Description: as §1, §2, §3

EC50 (Alpha 2B receptor) [nM] | RSAT (rel eff) Alpha 2B, intrinsic activity (Alpha 2B receptor) | EC50 (Alpha 2C receptor) [nM] | RSAT (rel eff) Alpha 2C, intrinsic activity (Alpha 2C receptor) | SMILES
6.38 | 0.77 |  |  | c1ccc(CC(N=C2NCCN2)c2ccccc2)cc1 (centres unmarked)
5.91 | 0.76 |  |  | Clc1cccc(C(Cc2ccccc2)N=C2NCCN2)c1 (centres unmarked)
3.69 | 0.89 | 9.48 | 0.45 | Cc1cccc(C(Cc2ccccc2)/N=C2/NCCS2)c1C (centres unmarked)
7.64 | 0.77 |  |  | Cc1c(Cl)cccc1C(Cc1ccccc1)N=C1NCCN1 (centres unmarked)
3.48 | 0.89 | 13.4 | 0.39 | Cc1cccc(C(Cc2ccccc2)/N=C2\NCCO2)c1C (centres unmarked)
2.79 | 0.93 | 2.57 | 0.32 | Fc1c(Cl)cccc1C(Cc1ccccc1)/N=C1\NCCO1 (centres unmarked)
4.54 | 0.89 | 6.48 | 0.38 | Fc1c(Cl)cccc1C(Cc1ccccc1)/N=C1/NCCS1 (centres unmarked)
3.09 | 0.89 |  |  | Clc1cccc(C(Cc2ccccc2)N=C2NCCN2)c1Cl (centres unmarked)
3.73 | 0.89 |  |  | Fc1ccc(CC(N=C2NCCN2)c2cccc(Cl)c2Cl)cc1 (centres unmarked)
3.24 | 0.89 |  |  | Clc1cccc(C(Cc2ccccc2Br)N=C2NCCN2)c1Cl (centres unmarked)
1.91 | 1.00 |  |  | COc1cccc(CC(N=C2NCCN2)c2cccc(Cl)c2Cl)c1 (centres unmarked)

Second part, the compound before the results:

SMILES | EC50 (Alpha 2B receptor) [nM] | RSAT (rel eff) Alpha 2B, intrinsic activity (Alpha 2B receptor) | EC50 (Alpha 2C receptor) [nM] | RSAT (rel eff) Alpha 2C, intrinsic activity (Alpha 2C receptor)
c1ccc(CC(/N=C2\NCCO2)c2ccccc2)cc1 (centres unmarked) | 3.69 | 0.95 | 3.36 | 0.45
c1ccc(CC(/N=C2/NCCS2)c2ccccc2)cc1 (centres unmarked) | 5.43 | 0.90 | 9.63 | 0.42
Cc1cccc(CC(/N=C2\NCCO2)c2cccc(Cl)c2)c1 (centres unmarked) | 2.79 | 0.92 | 8.56 | 0.63
Cc1cccc(CC(/N=C2/NCCS2)c2cccc(Cl)c2)c1 (centres unmarked) | 2.96 | 0.82 | 4.33 | 0.44
Clc1cccc(C(Cc2ccccc2)/N=C2\NCCO2)c1 (centres unmarked) | 7.14 | 0.83 | 4.39 | 0.37
Clc1cccc(C(Cc2ccccc2)/N=C2/NCCS2)c1 (centres unmarked) | 6.49 | 0.89 | 4.71 | 0.33
Cc1cccc(CC(N=C2NCCN2)c2cccc(Cl)c2)c1 (centres unmarked) | 1.52 | 0.81 | 3.7 | 0.38
Cc1ccc(CC(/N=C2/NCCS2)c2cccc(Cl)c2)cc1 (centres unmarked) | 7.32 | 0.76 | 11.8 | 0.45
Cc1ccc(CC(N=C2NCCN2)c2cccc(Cl)c2)cc1 (centres unmarked) | 5.61 | 0.69 |  | 
Cc1ccccc1CC(N=C1NCCN1)c1cccc(Cl)c1 (centres unmarked) | 1.92 | 0.87 |  | 
Cc1cccc(C(Cc2ccccc2)N=C2NCCN2)c1C (centres unmarked) | 2.54 | 0.83 |  | 
Cc1ccc(CC(/N=C2\NCCO2)c2cccc(Cl)c2)cc1 (centres unmarked) | 5.11 | 0.74 | 6.78 | 0.46
Cc1ccccc1CC(/N=C1/NCCS1)c1cccc(Cl)c1 (centres unmarked) | 3.29 | 0.89 | 8.34 | 0.46
Cc1ccccc1CC(/N=C1\NCCO1)c1cccc(Cl)c1 (centres unmarked) | 1.52 | 0.87 | 1.46 | 0.39
Fc1c(Cl)cccc1C(Cc1ccccc1)N=C1NCCN1 (centres unmarked) | 3.57 | 0.85 | 1.97 | 0.39
Cc1c(F)cccc1CC(N=C1NCCN1)c1cccc(Cl)c1Cl (centres unmarked) | 8.04 | 0.95 | 3.54 | 0.31
Clc1ccc(Cl)c(CC(N=C2NCCN2)c2cccc(Cl)c2Cl)c1 (centres unmarked) | 1.02 | 0.98 | 3.92 | 0.39
Fc1cccc(Cl)c1CC(N=C1NCCN1)c1cccc(Cl)c1Cl (centres unmarked) | 12.5 | 0.89 |  | 
Clc1cc(Cl)cc(CC(N=C2NCCN2)c2cccc(Cl)c2Cl)c1 (centres unmarked) | 0.9 | 1.20 | 5.74 | 0.42
Clc1ccc(CC(N=C2NCCN2)c2cccc(Cl)c2Cl)c(Cl)c1 (centres unmarked) | 2.79 | 1.17 |  | 
Clc1ccc(CC(NC2=NCCN2)c2cccc(Cl)c2Cl)cc1Cl (centres unmarked) | 10.8 | 0.96 |  | 
Oc1cccc(CC(NC2=NCCN2)c2cccc(Cl)c2Cl)c1 (centres unmarked) | 1.55 | 1.05 |  | 
COc1ccccc1CC(NC1=NCCN1)c1cccc(Cl)c1 (centres unmarked) | 0.61 | 0.89 |  | 
COc1ccccc1CC(NC1=NCCO1)c1cccc(Cl)c1 (centres unmarked) | 0.63 | 0.91 |  | 
Clc1cccc(C(Cc2ccccc2Br)NC2=NCCO2)c1 (centres unmarked) | 0.86 | 0.92 |  | 
